# Experimental data taken from US12343335B2, “Pharmaceutical composition for treating multiple sclerosis on basis of AMPK inhibitory function and zinc homeostasis control function” (ZINCURE CORP., priority 2019, dated 2025).
# Columns and labels:
# neuronal cell death = settings: after stroke; Eom J. W. et al., ACS Chem Neurosci. 2019; cited from earlier work
# spinal cord of EAE mice [1] = assay: Immunohistochemistry of spinal cord of EAE mice (CD4, CD8, CD20, IgG leakage); format: in vivo, C57BL/6 female mice
# Protocol: (§1) The present inventors induced experimental autoimmune encephalomyelitis (EAE), an animal model of multiple sclerosis, by subcutaneously injecting Myelin oligodendrocyte glycoprotein 35-55 (MOG35-55) peptide antigen into C57BL/6 female mice (FIG. 1A). For this, MOG35-55 (Ana spec, USA) and Complete freund's adjuvant (CFA) were first prepared, and MOG35-55 (2 mg/ml) was dissolved in Phosphate buffered saline (lx PBS, Sigma), and then the 25 ml of CFA was prepared by dispending 25 ml of incomplete freund's adjuvant (IFA. Sigma) in a 50 ml conical tube. Then, in a fume hood, Mycobacterium tuberculosis H37Ra (100 mg; Difco, USA) was added to the IFA in order to prepare CFA and store it in the refrigerator after vortexing before use. Thereafter, MOG35-55 and CFA containing Mycobacterium tuberculosis H37Ra was mixed in the same amount and injected into both flanks of the mice. And then Pertussis toxin (4 μg/ml, List Biological Laboratories, USA) was injected intraperitoneally on the day of immunization and on the second day after immunization. After the immunization, the mice's body weight and clinical symptoms were measured every day, and the degree of EAE progression was evaluated based on specific clinical symptoms. More details on this are provided below.
# On the 21st day after EAE induction, the present inventors anesthetized mice with urethane and then perfused 4% paraformaldehyde into the heart to fix the spinal cord. And then, an immunohistochemistry was performed using anti-CD4, anti-CD8, and anti-CD20 antibodies […]. Cryosections were reacted with 3% hydrogen peroxide at room temperature for 15 minutes to remove endogenous peroxidase, and then primary antibodies, rat anti-CD4 (1:50, BD Bioscience, CA, USA), anti-CD8 (1:50, BD Bioscience) and goat anti-CD20 (1:50, SantaCruz Biotechnology, USA) antibodies were reacted for 15 hours at 4° C. Thereafter, biotinylated anti-rat IgG or anti-goat IgG (1:250, Vector Laboratories, USA) was reacted at room temperature for 2 hours. […]
# spinal cord of EAE mice [2] = assay: Cresyl violet staining of spinal cord of EAE mice (mononuclear cell infiltration); format: in vivo, C57BL/6 female mice; settings: spinal cord white matter, day 21 after EAE induction, vs vehicle
# Protocol: as §1, with “below. […]” for “below.”
# [3] = system: MOG35-55-induced experimental autoimmune encephalomyelitis (EAE); assay: Long-term EAE model, 45 days after initial immunization; format: in vivo, C57BL/6 female mice; settings: intraperitoneally once a day
# Protocol: as §1
# EAE clinical symptom was evaluated based on previous studies (Jones et al., J. Neuroimmunol. 199(1-2): 83-93. 2008). […]
structure (smiles),measurement,setting,value
"O=C1N=C(Nc2cccc(O)c2)S/C1=C\c1c[nH]c2ccccc12 [1H10, (Z)-5-((1H-indol-3-yl)methylene)-2-((3-hydroxyphenyl)amino)thiazol-4(5H)-one]","neuronal cell death caused by zinc toxicity, excitory toxicity and oxidative damage",neuronal cell death,reduced
same,IgG staining due to damage of BBB,"spinal cord of EAE mice [1]; Sham group (no EAE induction), white or gray matter",not detected
same,"infiltration of the T and B cells (CD4, CD8, CD20)","spinal cord of EAE mice [1]; spinal cord white matter, after EAE induction, vs vehicle",significantly inhibited
same,IgG infiltration (BBB damage),"spinal cord of EAE mice [1]; white and gray matter, 3 weeks after MOG injection",significantly reduced
same,mononuclear cell infiltration,spinal cord of EAE mice [2],significantly inhibited
same,clinical symptoms,[3],significantly reduced
same,incidence rate,[3],significantly reduced
